Organism: Rattus norvegicus
Test: DrugMatrix - Regimen: Daily Repeat
Assay type: toxicity, organism-based, Sprague-Dawley
Parameters: regimen Daily Repeat, gender Male, age 6-8 weeks
Conditions: in vivo, po, route oral GAVAGE, vehicle 100 % WATER; for ABSOLUTE BASOPHIL / ABSOLUTE EOSINOPHIL / ABSOLUTE LYMPHOCYTE / ABSOLUTE MONOCYTE / ABSOLUTE SEGMENTED NEUTROPHIL / BASOPHIL / EOSINOPHIL / ERYTHROCYTE COUNT / HEMATOCRIT / HEMOGLOBIN / LEUKOCYTE COUNT / LYMPHOCYTE / MEAN CORPUSCULAR HEMOGLOBIN / MEAN CORPUSCULAR HEMOGLOBIN CONCENTRATION / MEAN CORPUSCULAR VOLUME / MONOCYTE / NEUTROPHIL / NUCLEATED RED BLOOD CELLS / PLATELET COUNT: tissue Blood; for ALANINE AMINOTRANSFERASE / ALBUMIN / ALKALINE PHOSPHATASE / ASPARTATE AMINOTRANSFERASE / BLOOD UREA NITROGEN / CARBON DIOXIDE / CHLORIDE / CHOLESTEROL / CREATINE PHOSPHOKINASE / CREATININE / GLUCOSE / LACTATE DEHYDROGENASE / LIPASE / PHOSPHORUS / POTASSIUM / SODIUM / TOTAL BILIRUBIN / TOTAL PROTEIN / URIC ACID: tissue Plasma
[1] = 0 mg/kg, 72 h, dose level Control, time 3 day
[2] = 0 mg/kg, 120 h, dose level Control, time 5 day
[3] = 0.07 mg/kg, 72 h, dose level Low, time 3 day

SMILES: Cc1cc(C(C)(C)C)c(O)c(C)c1CC1=NCCN1 [OXYMETAZOLINE]
- ABSOLUTE BASOPHIL [1]: 0 CELLS/uL
- ABSOLUTE EOSINOPHIL [1]: 123.17 CELLS/uL
- ABSOLUTE LYMPHOCYTE [1]: 12677.83 CELLS/uL
- ABSOLUTE MONOCYTE [1]: 66.17 CELLS/uL
- ABSOLUTE SEGMENTED NEUTROPHIL [1]: 1149.5 CELLS/uL
- BASOPHIL [1]: 0%
- EOSINOPHIL [1]: 0.83%
- ERYTHROCYTE COUNT [1]: 5.26 x10E6/uL
- HEMATOCRIT [1]: 33.07%
- HEMOGLOBIN [1]: 13.43 G/DL
- LEUKOCYTE COUNT [1]: 14.02 x10E3/uL
- LYMPHOCYTE [1]: 90.17%
- MEAN CORPUSCULAR HEMOGLOBIN [1]: 25.62 pg
- MEAN CORPUSCULAR HEMOGLOBIN CONCENTRATION [1]: 40.65 G/DL
- MEAN CORPUSCULAR VOLUME [1]: 63 fL
- MONOCYTE [1]: 0.5%
- NEUTROPHIL [1]: 8.5%
- NUCLEATED RED BLOOD CELLS [1]: 0.17 /100WBC
- PLATELET COUNT [1]: 1142.83 x10E3/uL
- ALANINE AMINOTRANSFERASE [1]: 45.17 u/L
- ALBUMIN [1]: 3.78 G/DL
- ALKALINE PHOSPHATASE [1]: 340.17 u/L
- ASPARTATE AMINOTRANSFERASE [1]: 77.33 u/L
- BLOOD UREA NITROGEN [1]: 14.67 mg/dL
- CARBON DIOXIDE [1]: 28.67 mmol/L
- CHLORIDE [1]: 101.17 MEQ/L
- CHOLESTEROL [1]: 77.67 mg/dL
- CREATINE PHOSPHOKINASE [1]: 263.67 u/L
- CREATININE [1]: 0.15 mg/dL
- GLUCOSE [1]: 169.33 mg/dL
- LACTATE DEHYDROGENASE [1]: 230 u/L
- LIPASE [1]: 9.67 u/L
- PHOSPHORUS [1]: 11.8 mg/dL
- POTASSIUM [1]: 5.91 MEQ/L
- SODIUM [1]: 142.88 MEQ/L
- TOTAL BILIRUBIN [1]: 0.22 mg/dL
- TOTAL PROTEIN [1]: 5.7 G/DL
- URIC ACID [1]: 1.35 mg/dL
- ABSOLUTE BASOPHIL [2]: 0 CELLS/uL
- ABSOLUTE EOSINOPHIL [2]: 125 CELLS/uL
- ABSOLUTE LYMPHOCYTE [2]: 13809 CELLS/uL
- ABSOLUTE MONOCYTE [2]: 351 CELLS/uL
- ABSOLUTE SEGMENTED NEUTROPHIL [2]: 1581.67 CELLS/uL
- BASOPHIL [2]: 0%
- EOSINOPHIL [2]: 0.67%
- ERYTHROCYTE COUNT [2]: 5.53 x10E6/uL
- HEMATOCRIT [2]: 34.83%
- HEMOGLOBIN [2]: 13.9 G/DL
- LEUKOCYTE COUNT [2]: 15.87 x10E3/uL
- LYMPHOCYTE [2]: 87.5%
- MEAN CORPUSCULAR HEMOGLOBIN [2]: 25.25 pg
- MEAN CORPUSCULAR HEMOGLOBIN CONCENTRATION [2]: 40.08 G/DL
- MEAN CORPUSCULAR VOLUME [2]: 63.05 fL
- MONOCYTE [2]: 2.17%
- NEUTROPHIL [2]: 9.67%
- NUCLEATED RED BLOOD CELLS [2]: 0 /100WBC
- PLATELET COUNT [2]: 1044 x10E3/uL
- ALANINE AMINOTRANSFERASE [2]: 50.67 u/L
- ALBUMIN [2]: 4.33 G/DL
- ALKALINE PHOSPHATASE [2]: 395 u/L
- ASPARTATE AMINOTRANSFERASE [2]: 86 u/L
- BLOOD UREA NITROGEN [2]: 15.33 mg/dL
- CARBON DIOXIDE [2]: 29.33 mmol/L
- CHLORIDE [2]: 101.5 MEQ/L
- CHOLESTEROL [2]: 71.33 mg/dL
- CREATINE PHOSPHOKINASE [2]: 323.17 u/L
- CREATININE [2]: 0.18 mg/dL
- GLUCOSE [2]: 145.67 mg/dL
- LACTATE DEHYDROGENASE [2]: 389.5 u/L
- LIPASE [2]: 9.83 u/L
- PHOSPHORUS [2]: 11.35 mg/dL
- POTASSIUM [2]: 6.39 MEQ/L
- SODIUM [2]: 142.77 MEQ/L
- TOTAL BILIRUBIN [2]: 0.18 mg/dL
- TOTAL PROTEIN [2]: 6.1 G/DL
- URIC ACID [2]: 1.52 mg/dL
- ABSOLUTE BASOPHIL [3]: 0 CELLS/uL
- ABSOLUTE EOSINOPHIL [3]: 62.33 CELLS/uL
- ABSOLUTE LYMPHOCYTE [3]: 13944.33 CELLS/uL
- ABSOLUTE MONOCYTE [3]: 0 CELLS/uL
- ABSOLUTE SEGMENTED NEUTROPHIL [3]: 1260 CELLS/uL
- BASOPHIL [3]: 0%
- EOSINOPHIL [3]: 0.33%
- ERYTHROCYTE COUNT [3]: 5.43 x10E6/uL
- HEMATOCRIT [3]: 34.37%
- HEMOGLOBIN [3]: 13.87 G/DL
- LEUKOCYTE COUNT [3]: 15.27 x10E3/uL
- LYMPHOCYTE [3]: 91.67%
- MEAN CORPUSCULAR HEMOGLOBIN [3]: 25.53 pg
- MEAN CORPUSCULAR HEMOGLOBIN CONCENTRATION [3]: 40.33 G/DL
- MEAN CORPUSCULAR VOLUME [3]: 63.33 fL
- MONOCYTE [3]: 0%
- NEUTROPHIL [3]: 8%
- NUCLEATED RED BLOOD CELLS [3]: 0.33 /100WBC
- PLATELET COUNT [3]: 1341.33 x10E3/uL
- ALANINE AMINOTRANSFERASE [3]: 49.33 u/L
- ALBUMIN [3]: 3.83 G/DL
- ALKALINE PHOSPHATASE [3]: 309.33 u/L
- ASPARTATE AMINOTRANSFERASE [3]: 74 u/L
- BLOOD UREA NITROGEN [3]: 12.33 mg/dL
- CARBON DIOXIDE [3]: 33.33 mmol/L
- CHLORIDE [3]: 100.33 MEQ/L
- CHOLESTEROL [3]: 68.67 mg/dL
- CREATINE PHOSPHOKINASE [3]: 205.67 u/L
- CREATININE [3]: 0.12 mg/dL
- GLUCOSE [3]: 144.67 mg/dL
- LACTATE DEHYDROGENASE [3]: 166.67 u/L
- LIPASE [3]: 10 u/L
- PHOSPHORUS [3]: 10.43 mg/dL
- POTASSIUM [3]: 6.84 MEQ/L
- SODIUM [3]: 142.8 MEQ/L
- TOTAL BILIRUBIN [3]: 0.2 mg/dL
- TOTAL PROTEIN [3]: 5.67 G/DL
- URIC ACID [3]: 1.37 mg/dL

— ChEMBL document CHEMBL3885881, “DrugMatrix”
